Reference: patent US8471005B2 (Cephalon, Inc., priority 2008, dated 2013)
Read-outs that look alike come from different tables or passages of the source.

Legend:
ALK = biological target: T1, ALK (Homo sapiens, UniProt Q9UM73); assay: ALK Kinase Assay (ELISA/TRF, PLC-γ substrate); type: biochemical; conditions: read-out: ALK Potency
T1 construct: host or cells: baculovirus expression system
Summary of the method: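 PLC-γ coat 10 μg/mL in TBS; ALK 30 ng/ml added to start; 37° C, 15 min; Eu-N1 PT66 antibody detection (TRF). IC50: % inhibition vs log10 [cpd], variable-slope sigmoidal fit.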

JAK2 = biological target: T2, JAK2 (Homo sapiens, UniProt O60674); assay: Recombinant Human JAK2 Kinase Assay (TRF); type: biochemical; conditions: read-out: JAK2 Potency
T2 construct: host or cells: baculovirus expression system
T2 sequence (O60674 whole entry): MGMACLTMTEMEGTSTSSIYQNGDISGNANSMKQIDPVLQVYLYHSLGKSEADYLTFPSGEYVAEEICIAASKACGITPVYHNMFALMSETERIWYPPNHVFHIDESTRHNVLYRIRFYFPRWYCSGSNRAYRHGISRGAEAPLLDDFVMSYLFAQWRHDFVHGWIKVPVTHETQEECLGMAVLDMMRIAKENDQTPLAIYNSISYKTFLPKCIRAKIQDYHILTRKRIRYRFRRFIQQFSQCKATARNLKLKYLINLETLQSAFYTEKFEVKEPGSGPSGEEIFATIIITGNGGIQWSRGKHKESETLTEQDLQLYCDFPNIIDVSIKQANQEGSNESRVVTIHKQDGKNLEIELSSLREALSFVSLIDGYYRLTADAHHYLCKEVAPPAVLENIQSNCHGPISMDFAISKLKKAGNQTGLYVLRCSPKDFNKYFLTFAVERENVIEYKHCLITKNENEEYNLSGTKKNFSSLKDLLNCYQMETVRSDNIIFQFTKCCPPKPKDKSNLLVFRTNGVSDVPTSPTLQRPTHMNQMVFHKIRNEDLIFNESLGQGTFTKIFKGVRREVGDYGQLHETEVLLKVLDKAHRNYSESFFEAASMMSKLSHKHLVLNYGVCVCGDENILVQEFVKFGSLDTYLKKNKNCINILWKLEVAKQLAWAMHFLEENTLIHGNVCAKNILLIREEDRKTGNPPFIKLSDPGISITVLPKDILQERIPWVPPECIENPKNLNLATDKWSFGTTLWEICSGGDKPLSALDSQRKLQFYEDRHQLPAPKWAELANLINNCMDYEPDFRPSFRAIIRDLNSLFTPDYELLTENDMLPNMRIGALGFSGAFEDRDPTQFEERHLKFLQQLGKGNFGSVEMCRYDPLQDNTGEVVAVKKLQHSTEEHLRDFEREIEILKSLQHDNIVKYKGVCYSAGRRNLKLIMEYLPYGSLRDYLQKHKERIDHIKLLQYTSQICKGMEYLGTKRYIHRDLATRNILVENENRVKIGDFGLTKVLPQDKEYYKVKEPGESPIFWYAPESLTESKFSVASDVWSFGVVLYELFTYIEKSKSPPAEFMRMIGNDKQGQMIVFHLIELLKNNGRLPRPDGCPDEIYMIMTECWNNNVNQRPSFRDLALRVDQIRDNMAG
Summary of the method: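 Baculovirus-expressed JAK2 (15 ng/ml) phosphorylated a biotinylated 15-mer peptide captured on Neutravidin, in 20 mM HEPES pH 7.2, 0.2 μM ATP, 1 mM MnCl2, 0.1% BSA, 2.5% DMSO final, 20 min at room temperature. Phosphoproduct detected by time-resolved fluorescence with Eu-N1-labelled PY100 antibody.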

[1] = ALK kinase inhibition, 1 μM ATP
[2] = JAK2 kinase inhibition, 0.2 μM ATP

T1 sequence (Q9UM73 19-1620): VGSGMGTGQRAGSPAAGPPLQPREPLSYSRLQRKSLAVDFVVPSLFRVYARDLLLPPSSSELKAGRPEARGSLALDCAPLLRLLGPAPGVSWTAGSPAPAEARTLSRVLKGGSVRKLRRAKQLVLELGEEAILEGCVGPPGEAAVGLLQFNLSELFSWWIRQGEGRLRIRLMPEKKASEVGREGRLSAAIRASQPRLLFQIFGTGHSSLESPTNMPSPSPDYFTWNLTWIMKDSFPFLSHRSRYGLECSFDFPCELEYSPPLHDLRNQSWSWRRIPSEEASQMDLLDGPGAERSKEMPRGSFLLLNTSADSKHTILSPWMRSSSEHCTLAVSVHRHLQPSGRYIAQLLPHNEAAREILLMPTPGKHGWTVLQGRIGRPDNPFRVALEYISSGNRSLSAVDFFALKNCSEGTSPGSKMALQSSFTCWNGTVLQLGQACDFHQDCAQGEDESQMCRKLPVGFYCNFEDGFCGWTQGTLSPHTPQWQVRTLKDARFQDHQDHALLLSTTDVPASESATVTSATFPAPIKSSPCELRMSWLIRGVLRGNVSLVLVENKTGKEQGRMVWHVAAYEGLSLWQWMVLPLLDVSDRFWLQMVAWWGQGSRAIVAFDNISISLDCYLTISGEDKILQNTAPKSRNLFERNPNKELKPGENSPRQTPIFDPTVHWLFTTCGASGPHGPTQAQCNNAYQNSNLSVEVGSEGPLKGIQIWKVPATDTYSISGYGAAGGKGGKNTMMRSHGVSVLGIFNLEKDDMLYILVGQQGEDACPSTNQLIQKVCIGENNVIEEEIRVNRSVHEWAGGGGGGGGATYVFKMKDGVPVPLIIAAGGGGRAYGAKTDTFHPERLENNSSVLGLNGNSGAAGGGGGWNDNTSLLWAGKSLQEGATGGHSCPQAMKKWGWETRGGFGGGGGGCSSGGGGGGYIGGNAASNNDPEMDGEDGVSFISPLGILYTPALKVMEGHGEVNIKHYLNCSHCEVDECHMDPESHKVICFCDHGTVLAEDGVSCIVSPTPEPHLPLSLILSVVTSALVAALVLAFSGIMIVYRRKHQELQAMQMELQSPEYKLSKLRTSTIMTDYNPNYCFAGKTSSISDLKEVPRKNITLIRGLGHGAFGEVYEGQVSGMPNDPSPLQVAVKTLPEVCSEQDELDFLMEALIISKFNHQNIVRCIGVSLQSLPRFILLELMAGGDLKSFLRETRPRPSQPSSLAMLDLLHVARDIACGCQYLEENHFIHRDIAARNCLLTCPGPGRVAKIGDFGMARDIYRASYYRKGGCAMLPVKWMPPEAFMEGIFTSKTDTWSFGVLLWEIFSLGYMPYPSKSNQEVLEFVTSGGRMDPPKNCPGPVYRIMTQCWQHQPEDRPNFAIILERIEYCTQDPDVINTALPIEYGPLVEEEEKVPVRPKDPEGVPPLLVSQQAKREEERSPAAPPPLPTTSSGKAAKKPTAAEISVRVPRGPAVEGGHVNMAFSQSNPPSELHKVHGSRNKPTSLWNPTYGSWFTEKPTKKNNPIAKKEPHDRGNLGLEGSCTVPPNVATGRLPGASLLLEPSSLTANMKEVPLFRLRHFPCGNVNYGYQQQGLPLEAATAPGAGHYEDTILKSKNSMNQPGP

SMILES	IC50 (ALK; ALK Kinase Inhibition) [nM]	IC50 (JAK2; JAK2 Kinase Inhibition) [nM]	IC50 (ALK; [1]) [nM]	IC50 (JAK2; [2]) [nM]
CN1CCN(c2ccc(Nc3ncc4c(-c5ccccc5Cl)ccn4n3)cc2)CC1 [Example 40, [5-(2-Chloro-phenyl)-pyrrolo[2,1-f][1,2,4]triazin-2-yl]-[4-(4-methyl-piperazin-1-yl)-phenyl]-amine]	> 10000	1000 to 10000	–	–
CN1C(=O)Cc2cc(Nc3ncc4ccc(-c5ccc(S(C)(=O)=O)cc5)n4n3)ccc21 [Example 373, 5-[7-(4-Methanesulfonyl-phenyl)-pyrrolo[2,1-f][1,2,4]triazin-2-ylamino]-1-methyl-1,3-dihydro-indol-2-one]	1000 to 10000	< 100	–	–
CN1CCOc2ccc(Nc3ncc4ccc(-c5cccc(NS(C)(=O)=O)c5)n4n3)cc21 [Example 643, N-{3-[2-(4-Methyl-3,4-dihydro-2H-benzo[1,4]oxazin-6-ylamino)-pyrrolo[2,1-f][1,2,4]triazin-7-yl]-phenyl}methanesulfonamide]	–	–	100 to 1000	< 100
COc1ccccc1-c1ccc2cnc(Nc3ccc4c(c3)C(N)C(O)C4)nn12 (centres unmarked) [Example 681, 1-Amino-6-[7-(2-methoxy-phenyl)-pyrrolo[2,1-f][1,2,4]triazin-2-ylamino]-indan-2-ol]	–	–	100 to 1000	< 100
CCN(CC)C(=O)c1ccccc1-c1ccc2cnc(Nc3ccc(N4CCOCC4)cc3)nn12 [Example 408, N,N-Diethyl-2-[2-(4-morpholin-4-yl-phenylamino)-pyrrolo[2,1-f][1,2,4]triazin-7-yl]-benzamide]	100 to 1000	< 100	–	–
COc1ccccc1-c1ccc2cnc(Nc3ccc4c(c3)N(C)CCO4)nn12 [Example 645, [7-(2-Methoxy-phenyl)-pyrrolo[2,1-f][1,2,4]triazin-2-yl]-(4-methyl-3,4-dihydro-2H-benzo[1,4]oxazin-6-yl)-amine]	–	–	100 to 1000	< 100
CN(c1ccccc1-c1ccc2cnc(Nc3ccc(N4CCOCC4)cc3F)nn12)S(C)(=O)=O [Example 386, N-{2-[2-(2-Fluoro-4-morpholin-4-yl-phenylamino)-pyrrolo[2,1-f][1,2,4]triazin-7-yl]-phenyl}-N-methyl-methanesulfonamide]	100 to 1000	< 100	–	–
Cn1cc(-c2ccc3cnc(Nc4cccc(N5CCOCC5)c4)nn23)cn1 [Example 198, [7-(1-Methyl-1H-pyrazol-4-yl)-pyrrolo[2,1-f][1,2,4]triazin-2-yl]-(3-morpholin-4-yl-phenyl)-amine]	100 to 1000	< 100	–	–
CS(=O)(=O)c1cccc(-c2ccc3cnc(Nc4ccc(C5CN(CC(N)=O)C5)cc4)nn23)c1 [Example 578, 2-(3-{4-[7-(3-Methanesulfonyl-phenyl)-pyrrolo[2,1-f][1,2,4]triazin-2-ylamino]-phenyl}-azetidin-1-yl)-acetamide]	–	–	100 to 1000	< 100
COc1ccc(Cl)cc1-c1ccc2cnc(Nc3cccc(N4CCN(C[C@H](C)O)CC4)c3)nn12 [Example 211, (S)-1-(4-{3-[7-(5-Chloro-2-methoxy-phenyl)-pyrrolo[2,1-f][1,2,4]triazin-2-ylamino]-phenyl}-piperazin-1-yl)-propan-2-ol]	< 100	< 100	–	–
COc1cc(N2CCC[C@H](C(=O)N3CCN(C)CC3)C2)ccc1Nc1ncc2ccc(-c3ccccc3N(C)S(C)(=O)=O)n2n1 [Example 460, N-[2-(2-{2-Methoxy-4-[(S)-3-(4-methyl-piperazine-1-carbonyl)-piperidin-1-yl]-phenylamino}-pyrrolo[2,1-f][1,2,4]triazin-7-yl)-phenyl]-N-methyl-methanesulfonamide]	< 100	100 to 1000	–	–
COc1ccccc1-c1ccc2cnc(Nc3ccc(C4CCN(CCO)CC4)cc3)nn12 [Example 668, 2-(4-{4-[7-(2-Methoxy-phenyl)-pyrrolo[2,1-f][1,2,4]triazin-2-ylamino]-phenyl}-piperidin-1-yl)-ethanol]	–	–	< 100	< 100
COc1ccc(-c2ccc3cnc(Nc4ccc(OC)c(N5CCOCC5)c4)nn23)cn1 [Example 397, (4-Methoxy-3-morpholin-4-yl-phenyl)-[7-(6-methoxy-pyridin-3-yl)-pyrrolo[2,1-f][1,2,4]triazin-2-yl]-amine]	100 to 1000	< 100	–	–
CC(=O)N1CCCCc2ccc(Nc3ncc4ccc(-c5ccccc5N(C)S(C)(=O)=O)n4n3)cc21 [Example 630, N-{2-[2-(1-Acetyl-2,3,4,5-tetrahydro-1H-benzo[b]azepin-8-ylamino)-pyrrolo[2,1-f][1,2,4]triazin-7-yl]phenyl}-N-methylmethanesulfonamide]	–	–	1000 to 10000	< 100
Clc1cccc(-c2ccc3cnc(Nc4ccc5c(c4)OCO5)nn23)c1 [Example 150, 1,3-Benzodioxol-5-yl-[7-(3-chloro-phenyl)-pyrrolo[2,1-f][1,2,4]triazin-2-yl]-amine]	> 10000	< 100	–	–

More lines, now with the values ahead:

IC50 (ALK; ALK Kinase Inhibition) [nM]	IC50 (JAK2; JAK2 Kinase Inhibition) [nM]	IC50 (ALK; [1]) [nM]	IC50 (JAK2; [2]) [nM]	SMILES
–	–	1000 to 10000	< 100	CC(C)(C)NS(=O)(=O)c1cccc(-c2ccc3cnc(Nc4cccc(C(=O)N5CCOCC5)c4)nn23)c1 [Example 892, N-tert-Butyl-3-{2-[3-(morpholine-4-carbonyl)-phenylamino]-pyrrolo[2,1-f][1,2,4]triazin-7-yl}-benzenesulfonamide]
–	–	1000 to 10000	< 100	COc1ccccc1-c1ccc2cnc(Nc3cccc(C4C(=O)N(C)CCN4C)c3)nn12 (centres unmarked) [Example 1082, 3-{3-[7-(2-Methoxy-phenyl)-pyrrolo[2,1-f][1,2,4]triazin-2-ylamino]-phenyl}-1,4-dimethyl-piperazin-2-one]
–	–	100 to 1000	1000 to 10000	COc1cc(C2CCNCC2)ccc1Nc1ncc2ccc(N3CC(c4ccccc4)CC3=O)n2n1 (centres unmarked) [Example 719, 1-[2-(2-Methoxy-4-piperidin-4-yl-phenylamino)-pyrrolo[2,1-f][1,2,4]triazin-7-yl]-4-phenyl-pyrrolidin-2-one]
–	–	< 100	100 to 1000	COc1cc(N2CCC(N3CCCOCC3)CC2)ccc1Nc1ncc2ccc(-c3ccccc3N(C)S(C)(=O)=O)n2n1 [Example 783, N-(2-{2-[2-Methoxy-4-(4-[1,4]oxazepan-4-yl-piperidin-1-yl)-henylamino]-pyrrolo[2,1-f][1,2,4]triazin-7-yl}-phenyl)-N-methyl-methanesulfonamide]
–	–	< 100	1000 to 10000	COc1cc(CN2CCN(C)CC2)ccc1Nc1ncc2ccc(-c3ccccc3N(C)S(C)(=O)=O)n2n1 [Example 1251, N-(2-{2-[2-Methoxy-4-(4-methyl-piperazin-1-ylmethyl)-phenylamino]-pyrrolo[2,1-f][1,2,4]triazin-7-yl}-phenyl)-N-methyl-methanesulfonamide]
< 100	< 100	–	–	COc1ccccc1-c1ccc2cnc(Nc3cc(F)c(N4CCN(C[C@H](C)O)CC4)cc3F)nn12 [Example 1481, (S)-1-(4-{2,5-Difluoro-4-[7-(2-methoxy-phenyl)-pyrrolo[2,1-f][1,2,4]triazin-2-ylamino]-phenyl}-piperazin-1-yl)-propan-2-ol]
–	–	100 to 1000	< 100	CN(c1ccccc1-c1ccc2cnc(Nc3ccc4cnn(C)c4c3)nn12)S(C)(=O)=O [Example 1340, N-Methyl-N-{2-[2-(1-methyl-1H-indazol-6-ylamino)-pyrrolo[2,1-f][1,2,4]triazin-7-yl]-phenyl}-methanesulfonamide]
–	–	1000 to 10000	< 100	CN(c1ccccc1-c1ccc2cnc(Nc3ccncc3)nn12)S(C)(=O)=O [Example 1364, N-Methyl-N-{2-[2-(pyridin-4-ylamino)-pyrrolo[2,1-f][1,2,4]triazin-7-yl]-phenyl}-methanesulfonamide]
–	–	< 100	< 100	COc1cc([C@@H]2CCN(CCF)C[C@@H]2O)ccc1Nc1ncc2ccc(-c3ccccc3OC)n2n1 (racemic) [Example 838, (±)-(3R,4S)-1-(2-Fluoro-ethyl)-4-{3-methoxy-4-[7-(2-methoxy-phenyl)-pyrrolo[2,1-f][1,2,4]triazin-2-ylamino]-phenyl}-piperidin-3-ol]
100 to 1000	< 100	–	–	CC(C)(C)NS(=O)(=O)c1cccc(-c2ccc3cnc(Nc4cccc(N5CCOCC5)c4)nn23)c1 [Example 1393, N-tert-Butyl-3-[2-(3-morpholin-4-yl-phenylamino)-pyrrolo[2,1-f][1,2,4]triazin-7-yl]-benzenesulfonamide]
–	–	< 100	100 to 1000	COc1cc(C2CCN(C)CC2)ccc1Nc1ncc2ccc(-c3cccc4c3OCC4)n2n1 [Example 705, [7-(2,3-Dihydro-benzofuran-7-yl)-pyrrolo[2,1-f][1,2,4]triazin-2-yl]-[2-methoxy-4-(1-methyl-piperidin-4-yl)-phenyl]-amine]
–	–	< 100	100 to 1000	COc1cc([C@]2(C#N)CC[C@H](N3CCOCC3)CC2)ccc1Nc1ncc2ccc(-c3ccccc3N(C)S(C)(=O)=O)n2n1 [Example 1245, N-{2-[2-({4-[trans-1-cyano-4-(morpholin-4-yl)cyclohexyl]-2-methoxyphenyl}amino)pyrrolo[2,1-f][1,2,4]triazin-7-yl]phenyl}-N-methylmethanesulfonamide]
–	–	1000 to 10000	< 100	CN1CCN(C)C(c2cccc(Nc3ncc4ccc(-c5ccccc5N(C)S(C)(=O)=O)n4n3)c2)C1=O (centres unmarked) [Example 1083, N-(2-{2-[3-(1,4-Dimethyl-3-oxo-piperazin-2-yl)-phenylamino]-pyrrolo[2,1-f][1,2,4]triazin-7-yl}-phenyl)-N-methyl-methanesulfonamide]
